Experimental data as given in US10987317B2, “Inhibition of glutaminase C” (Cornell University, priority 2009, dated 2021).

How the values were obtained:
[1] = tested on: GA activity in MDA-MB231 cells; assay: GA activity in mitochondrial fractions; format: cell-based, human; conditions: 10 μM, phosphate-independent
Procedure: 100%=620 moles of glutamine hydrolyzed per minute per mole of enzyme. Data represent the average of 3 experiments (±s.d.). […] Following precipitation of the beads and re-suspension, the samples are analyzed by Western blotting with anti-V5 antibody. […] Data represent the average of 3 experiments (±s.d.). […] Data represent the average of 3 experiments (±s.d.). […] Data represent the average of 3 experiments (±s.d.). FIG. 3E NIH 3T3 cells transiently expressing Dbl are assayed for focus formation in the presence of 10 μM 968 alone or together with […] dimethyl α-ketoglutarate. […] 100%=680 nM glutamine hydrolyzed per minute per 10^5 cells. Data are the average of 3 experiments (=s.d.). […] 100%=750 nM glutamine hydrolyzed per minute per 10^5 cells. Data represent the average of 3 experiments (±s.d.).
FIGS. 11A-E illustrate the effects of different treatments on GA activity. […] The addition of Pi stimulated the GA activity in control 3T3 cells, Dbl-expressing cells, and Cdc42(F28L)-expressing cells by ˜6-fold, 2-fold, and 3-fold, respectively. 100% represents the Pi-stimulated activity measured for Dbl-transformed cells that are not treated with 968. […] The data are plotted as the percentage of GA activity measured for untreated SKBR3 cells and represent the average of 2 experiments. […] 100% represents the P1-stimulated activity measured for untreateDbl-transformed cells. […]

[2] = tested on: NIH 3T3 cells transfected with oncogenic Dbl; assay: Dbl-induced cellular transformation (focus-forming assays, growth in low serum, soft agar); format: cell-based
Procedure: FIGS. 1A-E illustrate that the small molecule 968 inhibiting cellular transformation. […] Cells were fixed and stained with crystal violet for counting of foci. Right: 968 was serially diluted (10, 5, 2.5, and 1.25 μM) and evaluated for its ability to inhibit focus formation. […] After 6 days, the cells are counted. 100% represents the number of Dbl-transformed cells counted in the absence of 968 (27.5×10^4 cells). Data represent the average of 3 experiments (±s.d.). […] At the indicated times, the cells are counted. Data represent the average of 3 experiments (±s.d.).
FIGS. 2A-G illustrate effects of 968 on the transforming activity of constitutively active Rho GTPases and human breast cancer cells. […] Cells are scored after 14 days and plotted as the percentage of the total number of colonies greater than […] in diameter. Data represent the average of 3 experiments (±s.d.). […] Data represent the average of 3 experiments (±s.d.). […] Data represent the average of 3 experiments (±s.d.). […] After 24 hours at 37° C. the migratory cells are fixed, stained with GIEMSA, and counted. Data represent the average of 3 experiments (±s.d.). […] Data represent the average of 3 experiments (±s.d.). […] Data represent the average of 3 experiments (±s.d.). […] Data represent the average of 3 experiments (±s.d.).
FIGS. 5A-C illustrate comparative abilities of 968 and other benzo[a]phenanthrldinones to inhibit the transforming activity of oncogenic Dbl and H-Ras. […] Histograms show the relative levels of Dbl-induced focus formation for the different treatments, compared to Dbl-induced focus formation measured in the presence of DMSO (i.e. solvent control). Data represent the average of 3 experiments (mean±s.d.). […] Histograms show the relative levels of Ras(G12V)-induced focus formation measured for the different treatments, compared to Ras(G12V)-induced focus formation measured in the presence of DMSO (solvent control). Data represent the average of 3 experiments (mean±s.d.). FIG. 5C NIH 3T3 cells stably expressing H-Ras(G12V) that are cultured in DMEM supplemented with 1% calf serum, with the indicated amounts of 968. After 6 days, cells are trypsinized and counted. 100% represents the number of cells counted in the absence of 968, i.e. 26×10^4 cells. Data represent the average of 3 experiments (mean±s.d.).

## CN(C)c1ccc(C2Nc3ccc4ccccc4c3C3=C2C(=O)CC(C)(C)C3)cc1Br (stereo not shown) [Compound 968, 5-[3-bromo-4-(dimethylamino)phenyl]-2,2-dimethyl-2,3,5,6-tetrahydrobenzo[a]]
[1]
  basal GA activity: sensitive
[2]; 10 μM
  Dbl-induced colony formation in soft agar: blocked
[2]; focus-formation, 10 μM 968 with 7 μM dimethyl α-ketoglutarate
  reversal of 968-inhibition by cell-permeable analog of α-ketoglutarate: circumvented
[2]; focus-forming assays or growth in low serum
  concentration at which active in blocking Dbl-induced transformation: 1 to 10 µM
